Measured values from patent publication US10799507B2, “5-(7H-pyrrolo[2,3-d]pyrimidin-4-yl)-5-azaspiro[2.5]octane-8-carboxylic acid derivatives as novel JAK kinase inhibitors” (LEO Pharma A/S, priority 2017, dated 2020).

Experiments:
TYK2 = TYK2 (Homo sapiens (Human), UniProt P29597); test: JAK kinase assay (HTRF), TYK2; type: biochemical; conditions: catalytic domain, ATP at Km (13 μM)
Procedure, shortened: (§1)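 Catalytic-domain human kinases, GST-tagged TYK2 (aa 871-1187) and His-tagged JAK3, phosphorylate 1 μM TK Substrate-Biotin for 20-30 min at RT in 50 mM Hepes pH 7.0, 5 mM MgCl2, ATP at Km (TYK2 13 μM with 50 nM SEB; JAK3 2 μM). Phosphorylation detected by HTRF.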

JAK2 = JAK2 (Homo sapiens (Human), UniProt O60674); test: JAK kinase assay (HTRF), JAK2; type: biochemical; conditions: catalytic domain, ATP at Km (4 μM)
Chain of JAK2 (O60674 849-1124): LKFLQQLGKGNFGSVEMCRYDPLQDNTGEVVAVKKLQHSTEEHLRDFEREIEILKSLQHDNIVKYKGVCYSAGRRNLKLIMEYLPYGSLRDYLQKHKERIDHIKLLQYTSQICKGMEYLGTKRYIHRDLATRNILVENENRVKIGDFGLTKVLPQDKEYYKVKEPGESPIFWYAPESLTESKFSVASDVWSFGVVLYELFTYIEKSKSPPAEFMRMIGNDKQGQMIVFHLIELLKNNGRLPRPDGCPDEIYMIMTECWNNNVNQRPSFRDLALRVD
Procedure, shortened: (§2)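 Catalytic-domain human JAK1 (GST-tagged, aa 850-1154) or His-tagged JAK2, baculovirus-expressed, phosphorylated 1 µM biotinylated TK peptide at Km ATP (JAK1 7 µM, 10 mM MgCl2, 50 nM SEB; JAK2 4 µM, 5 mM MgCl2) in pH 7.0 Hepes, 20-30 min RT. EDTA stop; overnight streptavidin-XL665/cryptate HTRF read.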

[1] = in vitro metabolic stability in human liver microsomes; type: in vitro ADME; conditions: human, liver microsomes, 0.5 μM compound, 0.5 mg/mL microsomes, NADPH, 40 min, 37° C.; read-out: Human liver microsome Clapp (apparent intrinsic clearance)
Procedure, shortened: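 Compounds at 0.5 μM incubated in duplicate with human liver microsomes (0.5 mg/mL), phosphate buffer and NADPH at 37 °C for 40 min, sampled at 0, 5, 10, 20, 40 min into cold acetonitrile. LC-TOF-MS depletion gave elimination rate constant, from which apparent intrinsic clearance (Clapp) was calculated.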

JAK1 = JAK1 (Homo sapiens (Human), UniProt P23458); test: JAK kinase assay (HTRF), JAK1; type: biochemical; conditions: catalytic domain, ATP at Km (7 μM)
Chain of JAK1 (P23458 850-1154): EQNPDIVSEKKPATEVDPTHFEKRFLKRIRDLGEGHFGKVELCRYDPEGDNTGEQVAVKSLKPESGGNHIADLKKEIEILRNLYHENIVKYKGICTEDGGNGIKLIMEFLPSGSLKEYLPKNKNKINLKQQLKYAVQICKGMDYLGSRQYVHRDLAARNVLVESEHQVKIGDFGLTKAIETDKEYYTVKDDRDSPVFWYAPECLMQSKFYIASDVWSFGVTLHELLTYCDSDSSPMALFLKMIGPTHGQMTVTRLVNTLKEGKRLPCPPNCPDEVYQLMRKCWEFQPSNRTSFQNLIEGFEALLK
Procedure, shortened: as §2

JAK3 = JAK3 (Homo sapiens (Human), UniProt P52333); test: JAK kinase assay (HTRF), JAK3; type: biochemical; conditions: catalytic domain, ATP at Km (2 μM)
Chain of JAK3 (P52333 822-1111): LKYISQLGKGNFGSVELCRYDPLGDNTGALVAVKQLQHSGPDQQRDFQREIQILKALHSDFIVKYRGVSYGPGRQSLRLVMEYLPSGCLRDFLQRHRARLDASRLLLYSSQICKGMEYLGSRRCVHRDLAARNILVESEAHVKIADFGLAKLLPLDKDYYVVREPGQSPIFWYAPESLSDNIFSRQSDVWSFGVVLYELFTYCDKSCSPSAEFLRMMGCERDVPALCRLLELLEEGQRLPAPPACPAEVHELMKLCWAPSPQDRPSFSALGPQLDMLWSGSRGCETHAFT
Procedure, shortened: as §1

Chain of TYK2 (P29597 871-1187): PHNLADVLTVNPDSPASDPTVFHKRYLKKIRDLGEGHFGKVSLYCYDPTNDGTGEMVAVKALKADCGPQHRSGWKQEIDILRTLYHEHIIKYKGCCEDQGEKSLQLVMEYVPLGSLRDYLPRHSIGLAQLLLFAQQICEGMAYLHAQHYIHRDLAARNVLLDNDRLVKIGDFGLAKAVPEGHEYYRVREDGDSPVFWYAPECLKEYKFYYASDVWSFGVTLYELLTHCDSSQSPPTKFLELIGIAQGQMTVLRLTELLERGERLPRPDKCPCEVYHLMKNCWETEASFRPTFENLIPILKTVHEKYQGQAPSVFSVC

SMILES | EC50 (TYK2) | EC50 (JAK2) | CLint scaled at 0.5 μM [1] | EC50 (JAK1) | EC50 (JAK3)
C[C@H](NC(=O)[C@H]1CCN(c2ncnc3[nH]ccc23)CC12CC2)c1ccc(C#N)cn1 [Example 48, (8S)-N-[(1S)-1-(5-cyano-2-pyridyl)ethyl]-5-(7H-pyrrolo[2,3-d]pyrimidin-4-yl)-5-azaspiro[2.5]octane-8-carboxamide] | 128 nM | 10.2 nM | 48 mL/min/kg | 3.2 nM | 40.3 nM
O=C(OCC1(CO)CCC1)[C@H]1CCN(c2ncnc3[nH]ccc23)CC12CC2 [Example 157, [1-(hydroxymethyl)cyclobutyl]methyl (8S)-5-(7H-pyrrolo[2,3-d]pyrimidin-4-yl)-5-azaspiro[2.5]octane-8-carboxylate] | 9 nM | 2.1 nM | > 200 mL/min/kg | 0.8 nM | 6.6 nM
N#CCC1(COC(=O)C2CCN(c3ncnc4[nH]ccc34)CC23CC3)CC1 (centres unmarked) [Example 164, [1-(cyanomethyl)cyclopropyl]methyl 5-(7H-pyrrolo[2,3-d]pyrimidin-4-yl)-5-azaspiro[2.5]octane-8-carboxylate] | 70 nM | 5 nM | > 200 mL/min/kg | 4 nM | 19 nM
O=C(NCC1(CO)CCCC1)[C@H]1CCN(c2ncnc3[nH]ccc23)CC12CC2 [Example 52, (8S)-N-[[1-(hydroxymethyl)cyclopentyl]methyl]-5-(7H-pyrrolo[2,3-d]pyrimidin-4-yl)-5-azaspiro[2.5]octane-8-carboxamide] | 38 nM | 10.2 nM | 118 mL/min/kg | 3.6 nM | 22.8 nM
O=C(NCC1(CO)CC(F)(F)C1)C1CCN(c2ncnc3[nH]ccc23)CC12CC2 (centres unmarked) [Example 35, N-[[3,3-difluoro-1-(hydroxymethyl)cyclobutyl]methyl]-5-(7H-pyrrolo[2,3-d]pyrimidin-4-yl)-5-azaspiro[2.5]octane-8-carboxamide] | 71.8 nM | 4.8 nM | 41 mL/min/kg | 1.9 nM | 8.6 nM
Cc1ccc([C@H](O)CNC(=O)[C@H]2CCN(c3ncnc4[nH]ccc34)CC23CC3)cc1 [Example 64, (8S)-N-[(2S)-2-hydroxy-2-(p-tolyl)ethyl]-5-(7H-pyrrolo[2,3-d]pyrimidin-4-yl)-5-azaspiro[2.5]octane-8-carboxamide] | 90.9 nM | 6.7 nM | > 200 mL/min/kg | 4.5 nM | 28.5 nM
C[C@H](NC(=O)[C@H]1CCN(c2ncnc3[nH]ccc23)CC12CC2)c1ccc(C#N)cc1F [Example 20, (8S)-N-[(1S)-1-(4-cyano-2-fluoro-phenyl)ethyl]-5-(7H-pyrrolo[2,3-d]pyrimidin-4-yl)-5-azaspiro[2.5]octane-8-carboxamide] | 51.3 nM | 3.1 nM | 161 mL/min/kg | 1.1 nM | 17.6 nM
O=C(NC[C@H](O)C1CCC1)[C@H]1CCN(c2ncnc3[nH]ccc23)CC12CC2 [Example 25, (8S)-N-[(2R)-2-cyclobutyl-2-hydroxy-ethyl]-5-(7H-pyrrolo[2,3-d]pyrimidin-4-yl)-5-azaspiro[2.5]octane-8-carboxamide] | 11.1 nM | 3.4 nM | 46 mL/min/kg | 1.3 nM | 13.6 nM
O=C(N[C@@H](CO)[C@H](O)c1ccc(F)cn1)[C@H]1CCN(c2ncnc3[nH]ccc23)CC12CC2 (single isomer, unassigned) [Example 30] | 30.5 nM | 2.4 nM | 50 mL/min/kg | 1.4 nM | 27.1 nM
C[C@H](NC(=O)[C@H]1CCN(c2ncnc3[nH]ccc23)CC12CC2)[C@@H](O)c1ccc(F)c(F)c1 [Example 149, (8S)-N-[(1S,2S)-2-(3,4-difluorophenyl)-2-hydroxy-1-methyl-ethyl]-5-(7H-pyrrolo[2,3-d]pyrimidin-4-yl)-5-azaspiro[2.5]octane-8-carboxamide] | 4.2 nM | 200 nM | > 200 mL/min/kg | 0.4 nM | 0.6 nM
O=C(NCC1CC(F)(F)C1)[C@H]1CCN(c2ncnc3[nH]ccc23)CC12CC2 [Example 62, (8S)-N-[(3,3-difluorocyclobutyl)methyl]-5-(7H-pyrrolo[2,3-d]pyrimidin-4-yl)-5-azaspiro[2.5]octane-8-carboxamide] | 47.5 nM | 7 nM | 48 mL/min/kg | 4.5 nM | 15.7 nM
O=C(NCC1CC(F)(F)C1)C1CCN(c2ncnc3[nH]ccc23)CC12CC2 (centres unmarked) [Example 56, N-[(3,3-difluorocyclobutyl)methyl]-5-(7H-pyrrolo[2,3-d]pyrimidin-4-yl)-5-azaspiro[2.5]octane-8-carboxamide] | 170 nM | 8.3 nM | 63 mL/min/kg | 3.9 nM | 18.1 nM
O=C(NC[C@H](O)C1CCCCC1)[C@H]1CCN(c2ncnc3[nH]ccc23)CC12CC2 [Example 15, (8S)-N-[(2R)-2-cyclohexyl-2-hydroxy-ethyl]-5-(7H-pyrrolo[2,3-d]pyrimidin-4-yl)-5-azaspiro[2.5]octane-8-carboxamide] | 7.4 nM | 1.7 nM | > 200 mL/min/kg | 0.9 nM | 3.7 nM
O=C(NCC1(O)CCC1)[C@H]1CCN(c2ncnc3[nH]ccc23)CC12CC2 [Example 68, (8S)-N-[(1-hydroxycyclobutyl)methyl]-5-(7H-pyrrolo[2,3-d]pyrimidin-4-yl)-5-azaspiro[2.5]octane-8-carboxamide] | 78.1 nM | 11.8 nM | 23 mL/min/kg | 5.1 nM | 29.6 nM
N#Cc1ccc([C@H](CO)NC(=O)C2CCN(c3ncnc4[nH]ccc34)CC23CC3)cc1 (stereo partly drawn) [Example 19, N-[(1R)-1-(4-cyanophenyl)-2-hydroxy-ethyl]-5-(7H-pyrrolo[2,3-d]pyrimidin-4-yl)-5-azaspiro[2.5]octane-8-carboxamide] | 109 nM | 4 nM | 88 mL/min/kg | 1.1 nM | 8.4 nM
N#Cc1ccc(CNC(=O)[C@H]2CCN(c3ncnc4[nH]ccc34)CC23CC3)cc1F [Example 16, (8S)-N-[(4-cyano-3-fluoro-phenyl)methyl]-5-(7H-pyrrolo[2,3-d]pyrimidin-4-yl)-5-azaspiro[2.5]octane-8-carboxamide] | 44.3 nM | 3.6 nM | 180 mL/min/kg | 1 nM | 7.1 nM
O=C(NCC1(CO)CC(F)(F)C1)[C@H]1CCN(c2ncnc3[nH]ccc23)CC12CC2 [Example 23, (8S)-N-[[3,3-difluoro-1-(hydroxymethyl)cyclobutyl]methyl]-5-(7H-pyrrolo[2,3-d]pyrimidin-4-yl)-5-azaspiro[2.5]octane-8-carboxamide] | 19.8 nM | 2.7 nM | 40 mL/min/kg | 1.3 nM | 6.7 nM
O=C(NC[C@@H](O)c1ccccc1)[C@H]1CCN(c2ncnc3[nH]ccc23)CC12CC2 [Example 51, (8S)-N-[(2S)-2-hydroxy-2-phenyl-ethyl]-5-(7H-pyrrolo[2,3-d]pyrimidin-4-yl)-5-azaspiro[2.5]octane-8-carboxamide] | 40.5 nM | 11.3 nM | > 200 mL/min/kg | 3.5 nM | 49.2 nM
O=C(NCC(O)c1ccc(F)cn1)[C@H]1CCN(c2ncnc3[nH]ccc23)CC12CC2 (stereo partly drawn) [Example 38, (8S)-N-[2-(5-fluoro-2-pyridyl)-2-hydroxy-ethyl]-5-(7H-pyrrolo[2,3-d]pyrimidin-4-yl)-5-azaspiro[2.5]octane-8-carboxamide] | 32.1 nM | 9 nM | 73 mL/min/kg | 2.2 nM | 33.6 nM
O=C(OCC1(CO)CS(=O)(=O)C1)[C@H]1CCN(c2ncnc3[nH]ccc23)CC12CC2 [Example 162, [3-(hydroxymethyl)-1,1-dioxo-thietan-3-yl]methyl (8S)-5-(7H-pyrrolo[2,3-d]pyrimidin-4-yl)-5-azaspiro[2.5]octane-8-carboxylate] | 3.6 nM | 0.6 nM | < 10 mL/min/kg | 0.2 nM | 1.5 nM
O=C(NCC1(O)CCCCC1)[C@H]1CCN(c2ncnc3[nH]ccc23)CC12CC2 [Example 74, (8S)-N-[(1-hydroxycyclohexyl)methyl]-5-(7H-pyrrolo[2,3-d]pyrimidin-4-yl)-5-azaspiro[2.5]octane-8-carboxamide] | 55.7 nM | 15.3 nM | 37 mL/min/kg | 6.1 nM | 23.2 nM
N#Cc1ccc(CNC(=O)[C@H]2CCN(c3ncnc4[nH]ccc34)CC23CC3)c(F)c1 [Example 31, (8S)-N-[(4-cyano-2-fluoro-phenyl)methyl]-5-(7H-pyrrolo[2,3-d]pyrimidin-4-yl)-5-azaspiro[2.5]octane-8-carboxamide] | 63.7 nM | 6.4 nM | 166 mL/min/kg | 1.4 nM | 15.6 nM
